Test results taken from ChEMBL document CHEMBL1150772, “Chemometric and chemoinformatic analyses of anabolic and androgenic activities of testosterone and dihydrotestosterone analogues” (Bioorg Med Chem, 2008).

Test: physchem
Conditions: octanol/water
Description: Lipophilicity, log P of the compound

Point of comparison: `C[C@]12CC[C@H]3[C@@H](CCC4=CC(=O)CC[C@@]43C)[C@@H]1CC[C@@H]2O[Si](C)(C)C`, logP 3.95. Against it:
- C[C@]12C[C@@H]3O[C@@H]3C[C@@H]1CC[C@@H]1[C@@H]2CC[C@]2(C)[C@@H](O)CC[C@@H]12 — higher, 4.5
- C[C@]12C[C@@H]3[C@H](C[C@@H]1CC[C@@H]1[C@@H]2CC[C@@]2(C)[C@H]1CC[C@]2(C)O)C3(F)F — higher, 4.72
- C[C@]12C[C@@H](F)C(=O)C[C@@H]1CC[C@@H]1[C@@H]2CC[C@]2(C)[C@@H](O)CC[C@@H]12 — within 0.2 log units, 3.96
- C[C@@H]1CC2=CC(=O)CC[C@]2(C)[C@H]2CC[C@@]3(C)[C@@H](CC[C@]3(C)O)[C@H]12 [BOLASTERONE] — higher, 4.24
- CCOC1(O[C@H]2CC[C@H]3[C@@H]4CC[C@H]5CC(=O)CC[C@]5(C)[C@H]4CC[C@]23C)CCCC1 — higher, 6.02
- C[C@]12CCC(=O)C=C1CC[C@@H]1[C@@H]2CC[C@@]2(C)[C@H]1CC[C@]2(C)O [METHYLTESTOSTERONE] — within 0.2 log units, 3.91
- CC1=C[C@@]2(C)C(=CC1=O)C=C[C@@H]1[C@@H]2CC[C@@]2(C)[C@H]1CC[C@]2(C)O — within 0.2 log units, 4.01
- CC(=O)O[C@H]1CC[C@H]2[C@@H]3CCC4=CC(=O)CC[C@]4(C)[C@H]3CC[C@]12C — higher, 4.2
- COC1(O[C@H]2CC[C@H]3[C@@H]4CC[C@H]5CC(=O)CC[C@]5(C)[C@H]4CC[C@]23C)CCCC1 — higher, 5.68
- C[C@H]1C[C@@H]2[C@H](CC[C@@]3(C)[C@H]2CC[C@]3(C)O)[C@@]2(C)CCC(=O)C=C12 — higher, 4.24
- C[C@]12CC[C@H]3[C@@H](CCC4=CC(=O)CC[C@@]43C)[C@@H]1CC[C@@H]2OC(=O)C(F)Cl (stereo partly drawn) — higher, 4.7
- CC(=O)O[C@H]1CC[C@H]2[C@@H]3CCC4=C(O)C(=O)CC[C@]4(C)[C@H]3CC[C@]12C — lower, 3.06
- C[C@]12C/C(=C\N)C(=O)C[C@@H]1CC[C@@H]1[C@@H]2CC[C@@]2(C)[C@H]1CC[C@]2(C)O — lower, 2.8
- C[C@H]1C/C(=N\O)C[C@@H]2CC[C@@H]3[C@H](CC[C@@]4(C)[C@H]3CC[C@]4(C)O)[C@]21C — higher, 5
- C[C@@H]1C[C@@]2(C)[C@@H](CC[C@@H]3[C@@H]2CC[C@]2(C)[C@@H](O)CC[C@@H]32)CC1=O [DROMOSTANOLONE] — higher, 4.5
- C[C@]12CC/C(=N/NC(N)=O)C[C@@H]1CC[C@@H]1[C@@H]2CC[C@]2(C)[C@@H](O)CC[C@@H]12 — lower, 3.45
- C[C@]12CCC(=O)C=C1CC[C@@H]1[C@@H]2[C@@H](O)C[C@@]2(C)[C@H]1CC[C@]2(C)O — lower, 2.93
- CC(=O)O[C@H]1CC[C@H]2[C@@H]3CCC4=C(Cl)C(=O)CC[C@]4(C)[C@H]3[C@@H](O)C[C@]12C — lower, 2.88
- CC(=O)O[C@H]1CC[C@H]2[C@@H]3CCC4=C(Cl)C(=O)CC[C@]4(C)[C@H]3CC[C@]12C — within 0.2 log units, 3.87
- C[C@]12C[C@H](O)CC[C@@H]1CC[C@@H]1[C@@H]2CC[C@@]2(C)[C@H]1CC[C@]2(C)O — within 0.2 log units, 3.8
- C[C@]12CC[C@H]3[C@@H](CCC4=CC(=O)[C@H](F)C[C@@]43C)[C@@H]1CC[C@@H]2O — within 0.2 log units, 3.86
- C[C@@H]1C[C@@H]2[C@H](CC[C@]3(C)[C@@H](O)CC[C@@H]23)[C@@]2(C)CCC(=O)C[C@H]12 — higher, 4.26
- C[C@@H]1CC2=CC(=O)CC[C@]2(C)[C@H]2CC[C@]3(C)C(=O)CC[C@H]3[C@H]12 — higher, 4.69
- CCCO[C@@]1(C)CC[C@H]2[C@@H]3CC[C@H]4CC(=O)[C@H](C)C[C@]4(C)[C@H]3CC[C@@]21C — higher, 5.66
- C[C@@H]1C[C@]2(C)C3=CC[C@@]4(C)C(CC[C@]4(C)O)[C@@H]3CC[C@H]2CC1=O (stereo partly drawn) — within 0.2 log units, 4.14
- C[C@]12CC[C@H]3[C@@H](C[C@@H](F)C4=CC(=O)CC[C@@]43C)[C@@H]1CC[C@@H]2O — lower, 3.53
- C[C@H]1C[C@@H]2[C@H](CC[C@]3(C)[C@@H](O)CC[C@@H]23)[C@@]2(C)CCC(=O)C[C@H]12 — higher, 4.26
- C[C@]12CC[C@@H](O)C[C@@H]1CC[C@@H]1[C@@H]2CC[C@]2(C)[C@@H](O)CC[C@@H]12 [ANDROSTANDIOL] — higher, 5.49
- CCCO[C@@]1(C)CC[C@H]2[C@@H]3C[C@H](C)[C@H]4CC(=O)[C@H](C)C[C@]4(C)[C@H]3CC[C@@]21C — higher, 5.99
- C[C@]12CC[C@H]3[C@@H](CCC4=CC(=O)CC[C@@]43C)[C@@H]1CC[C@@H]2OC(=O)C(Cl)Cl — higher, 5.04
- CC(=O)O[C@H]1CC[C@H]2[C@@H]3CC[C@H]4C[C@@H]5[C@H](C[C@]4(C)[C@H]3CC[C@]12C)C5(F)F — higher, 4.77
- C[C@]12CCC(=O)C[C@@H]1CC[C@H]1C3=CC[C@H](O)[C@@]3(C)CC[C@@H]12 — lower, 3.5
- C[C@H]1C[C@@H]2[C@H](CC[C@@]3(C)[C@H]2CC[C@]3(C)O)[C@@]2(C)CCC(=O)C[C@H]12 — higher, 4.34
- C[C@]12CCC(=O)C=C1CC[C@@H]1[C@@H]2C(=O)C[C@]2(C)C(=O)CC[C@@H]12 [ADRENOTERONE] — lower, 3.75
- CN(C)CCN/C=C1\C[C@@]2(C)[C@@H](CC[C@@H]3[C@@H]2CC[C@@]2(C)[C@H]3CC[C@]2(C)O)CC1=O — lower, 2.53
- C[C@]12C[C@H]3O[C@H]3C[C@@H]1CC[C@@H]1[C@@H]2CC[C@]2(C)[C@@H](O)CC[C@@H]12 — lower, 3.5
- C[C@]12CCC(=O)C[C@@H]1CC[C@@H]1[C@@H]2CC[C@@]2(C)[C@H]1CC[C@]2(C)O [MESTANOLONE] — within 0.2 log units, 4.01
- CC(=O)O[C@H]1CC[C@H]2[C@@H]3CC[C@H]4C[C@H]5[C@@H](C[C@]4(C)[C@H]3CC[C@]12C)C5(F)F — higher, 4.77
- C[C@]12C[C@H](O)[C@H]3[C@@H](CCC4=CC(=O)CC[C@@]43C)[C@@H]1CC[C@@H]2O — lower, 2.85
- C[C@]12CC[C@H]3[C@@H](CCC4=CC(=O)CC[C@@]43C)[C@@H]1CC[C@@H]2O [TESTOSTERONE] — lower, 2.53
- COC[C@@H]1C[C@@]2(C)[C@@H](CC[C@@H]3[C@@H]2CC[C@]2(C)[C@@H](O)CC[C@@H]32)CC1=O — within 0.2 log units, 3.77
- C[C@@H]1CC2=CC(=O)CC[C@]2(C)[C@H]2CC[C@]3(C)[C@@H](O)CC[C@H]3[C@H]12 — higher, 4.17
